Reference: US11066414B2, “Cot modulators and methods of use thereof” (Gilead Sciences, Inc., priority 2015, dated 2021)
Read-outs that look alike come from different tables or passages of the source.

Assays:
TNFα = assay: Cot Monocyte TNFα Cell Based Assay
Human Cot = Human Cot (Homo sapiens (Human), UniProt P41279); assay: High Throughput Cot Biochemical Assay
[1] = read-out: EC50 TNF, LPS-stimulated human monocytes, TNFα
[2] = read-out: IC50 HTRF, Cot HTRF (TR-FRET) biochemical assay
[3] = Homo sapiens, Monocyte, read-out: EC50 TNF, LPS-stimulated human monocytes, TNFα
[4] = IC50 HTRF, Cot HTRF (TR-FRET) biochemical assay
[5] = Homo sapiens, Monocyte, read-out: EC50 TNF, LPS-stimulated human monocytes, TNFα TR-FRET
[6] = IC50 HTRF, Cot HTRF (TR-FRET KinEASE) biochemical assay, 400 μM ATP

Chain of Human Cot (P41279 30-397): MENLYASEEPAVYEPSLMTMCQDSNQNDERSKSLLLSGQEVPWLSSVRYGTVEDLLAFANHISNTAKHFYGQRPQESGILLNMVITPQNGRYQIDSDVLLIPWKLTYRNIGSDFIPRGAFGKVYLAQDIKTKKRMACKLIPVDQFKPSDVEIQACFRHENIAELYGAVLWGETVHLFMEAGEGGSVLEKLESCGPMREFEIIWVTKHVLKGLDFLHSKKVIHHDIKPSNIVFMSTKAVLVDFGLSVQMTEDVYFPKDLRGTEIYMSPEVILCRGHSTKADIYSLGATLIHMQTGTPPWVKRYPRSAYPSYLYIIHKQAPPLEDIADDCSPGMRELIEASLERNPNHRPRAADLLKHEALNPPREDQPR

SMILES	EC50 (TNFα; [3]) [nM]	IC50 (Human Cot; [4]) [nM]	also measured
Cc1nc(F)ccc1[C@H](Nc1cc(C#N)c2ncc(C#N)c(NCC(C)(C)C)c2c1)c1cn(CC(F)F)nn1 [Example 634, (S)-6-(((1-(2,2-dinuoroethyl)-1H-1,2,3-triazol-4-yl)(6-fluoro-2-methylpyridin-3-yl)methyl)amino)-4-(neopentylamino)quinoline-3,8-dicarbonitrile]			EC50 (TNFα; [1]): 43 nM; IC50 (Human Cot; [2]): 2 nM
Cc1nc(F)ccc1[C@H](Nc1cc(Cl)c2ncc(C#N)c(NCC3(C)COC3)c2c1)c1cn(C2(C(F)(F)F)CC2)nn1 [Example 792, (S)-8-chloro-6-(((6-fluoro-2-methylpyridin-3-yl)(1-(1-(trifluoromethyl)-cyclopropyl)-1H-1,2,3-triazol-4-yl)methyl)amino)-4-(((3-methyloxetan-3-yl)methyl)amino)quinoline-3-carbonitrile]	843	89	
Cc1nc(F)ccc1[C@H](Nc1cc(Cl)c2ncc(C#N)c(NCC(C)(C)C)c2c1)c1cn(CC(F)F)nn1 [Example 532, (S)-8-chloro-6-(((1-(2,2-difluoroethyl)-1H-1,2,3-triazol-4-yl)(6-fluoro-2-methyl-pyridin-3-yl)methyl)amino)-4-(neopentyl-amino)quinoline-3-carbonitrile]	78	3	
Cc1nc(F)ccc1[C@H](Nc1cc(Cl)c2ncc(C#N)c(NCC(C)(C)C)c2c1F)c1cn(C2(C(F)F)CC2)nn1 [Example 983, (S)-8-chloro-6-(((1-(1-(difluoromethyl)cyclopropyl)-1H-1,2,3-triazol-4-yl)(6-fluoro-2-methylpyridin-3-yl)methyl)amino)-5-fluoro-4-(neopentylamino)quinoline-3-carbonitrile]			EC50 (TNFα; [5]): 1000 nM; IC50 (Human Cot; [6]): 9640 nM
COc1c(C(Nc2cc(Cl)c3ncc(C#N)c(NCC(C)(C)C)c3c2)c2ccc(F)nc2C)nnn1C (stereo not shown) [Example 971, 8-chloro-6-(((6-fluoro-2-methylpyridin-3-yl)(5-methoxy-1-methyl-1H-1,2,3-triazol-4-yl)methyl)amino)-4-(neopentylamino)quinoline-3-carbonitrile]			EC50 (TNFα; [5]): 301 nM; IC50 (Human Cot; [6]): 11 nM
Cc1nc(F)ccc1[C@H](Nc1cc(Cl)c2ncc(C#N)c(NCC(C)(C)C)c2c1)c1nnn([C@@H](C)CF)c1F [Example 952, 8-chloro-6-(((S)-(5-fluoro-1-((S)-1-fluoropropan-2-yl)-1H-1,2,3-triazol-4-yl)(6-fluoro-2-methylpyridin-3-yl)methyl)amino)-4-(neopentylamino)quinoline-3-carbonitrile]			EC50 (TNFα; [5]): 36 nM; IC50 (Human Cot; [6]): 4 nM
Cn1cc2cccc([C@H](Nc3cc(Cl)c4ncc(C#N)c(NCC(C)(C)C)c4c3)c3cn(C4(C(F)(F)F)CC4)nn3)c2n1 [Example 570, (S)-8-chloro-6-(((2-methyl-2H-indazol-7-yl)(1-(1-(trifluoromethyl)cyclopropyl)-1H-1,2,3-triazol-4-yl)methyl)amino)-4-(neopentylamino)quinoline-3-carbonitrile]	1000	184	
Cc1ccc([C@H](Nc2cc(C#N)c3ncc(C#N)c(NCC(C)(C)C)c3c2)c2cn(C3(C(F)(F)F)CC3)nn2)c(C)n1 [Example 689, (S)-6-(((2,6-dimethylpyridin-3-yl)(1-(1′-(trifluoromethyl)cyclopropyl)-1H-1,2,3-triazol-4-yl)methyl)amino)-4-(neopentylamino)quinoline-3,8-dicarbonitrile]			EC50 (TNFα; [1]): 81 nM; IC50 (Human Cot; [2]): 9 nM
Cn1ccc2c([C@H](Nc3cc(Cl)c4ncc(C#N)c(NCC(C)(C)C)c4c3)c3cn(C4(C(F)F)CC4)nn3)cccc2c1=O [Example 744, (S)-8-chloro-6-(((1-(1-(difluoromethyl)cyclopropyl)-1H-1,2,3-triazol-4-yl)(2-methyl-1-oxo-1,2-dihydroisoquinolin-5-yl)methyl)amino)-4-(neopentylamino)quinoline-3-carbonitrile]	33	3	
Cc1nc(F)ccc1[C@H](Nc1cc(C#N)c2ncc(C#N)c(NCC(C)(C)C(F)(F)F)c2c1)c1cn(C2(C(F)(F)F)CC2)nn1 [Example 843, (S)-6-(((6-fluoro-2-methylpyridin-3-yl)(1-(1-(trifluoromethyl)cyclopropyl)-1H-1,2,3-triazol-4-yl)methyl)amino)-4-((3,3,3-trifluoro-2,2-dimethylpropyl)amino)-quinoline-3,8-dicarbonitrile]			EC50 (TNFα; [5]): 104 nM; IC50 (Human Cot; [6]): 4 nM
Cc1ncccc1[C@H](Nc1cc(Cl)c2ncc(C#N)c(Nc3cnc(F)c(F)c3)c2c1)c1cn(C2COC2)nn1 [Example 172, (S)-8-chloro-4-((5,6-difluoropyridin-3-yl)amino)-6-(((2-methylpyridin-3-yl)(1-(oxetan-3-yl)-1H-1,2,3-triazol-4-yl)methyl)amino)quinoline-3-carbonitrile]	832	10	
CC(C)(C)N1CCC(n2cc([C@@H](Nc3cc(Cl)c4ncc(C#N)c(Nc5ccc(F)c(Cl)c5)c4c3)c3ccc(F)nc3)nn2)CC1 [Example 347, (S)-6-(((1-(1-(tert-butyl)piperidin-4-yl)-1H-1,2,3-triazol-4-yl)(6-fluoropyridin-3-yl)methyl)amino)-8-chloro-4-((3-chloro-4-fluorophenyl)amino)quinoline-3-carbonitrile]	278	4	
CC(C)(C)CNc1c(C#N)cnc2c(Cl)cc(N[C@H](c3cn(C4(C(F)F)CC4)nn3)c3cccc4[nH]ncc34)cc12 [Example 500, (S)-8-chloro-6-(((1-(1-(difluoromethyl- )cyclopropyl)-1H-1,2,3-triazol-4-yl)(1H-indazol-4-yl)methyl)amino)-4-(neopentylamino)quinoline-3-carbonitrile]			EC50 (TNFα; [1]): 321 nM; IC50 (Human Cot; [2]): 8 nM
[2H]C([2H])([2H])C([2H])([2H])[C@@H](Nc1c(C#N)cnc2c(Cl)cc(N[C@]([2H])(c3ccc(F)nc3)c3cn(C4CC4)nn3)cc12)c1ccccc1 [Example 108, 8-chloro-6-(((R)-(1-cyclopropyl-1H-1,2,3-triazol-4-yl)(6-fluoropyridin-3-yl)methyl-d)amino)-4-(((R)-1-phenyl-propyl-2,2,3,3,3-d5)amino)quinoline-3-carbonitrile]	> 10000	913	
Cc1nc2cccc([C@H](Nc3cc(C#N)c4ncc(C#N)c(NCC(C)(C)C)c4c3)c3cn(C4(C(F)(F)F)CC4)nn3)c2s1 [Example 430, (S)-6-(((2-methylbenzo[d]thiazol-7-yl)(1-(1-(trifluoromethyl)cyclopropyl)-1H-1,2,3-triazol-4-yl)methyl)amino)-4-(neopentylamino)quinoline-3,8-dicarbonitrile]	214	5	
CC(C)(C)CNc1c(C#N)cnc2c(Cl)cc(N[C@H](c3cn(C4(C)CC4)nn3)c3cccc4ncccc34)cc12 [Example 568, (S)-8-chloro-6-(((1-(1-methylcyclopropyl)-1H-1,2,3-triazol-4-yl)(quinolin-5-yl)methyl)amino)-4-(neopentylamino)-quinoline-3-carbonitrile]	170	5	
COc1c([C@@H](Nc2cc(Cl)c3ncc(C#N)c(NCC(C)(C)C)c3c2)c2ccc(F)nc2C)nnn1C1(C(F)F)CC1 [Example 965, (S)-8-chloro-6-(((1-(1-(difluoromethyl)cyclopropyl)-5-methoxy-1H-1,2,3-triazol-4-yl)(6-fluoro-2-methylpyridin-3-yl)methyl)amino)-4-(neopentylamino)quinoline-3-carbonitrile]			EC50 (TNFα; [5]): 78 nM; IC50 (Human Cot; [6]): 4 nM
Cc1nc(Cl)ccc1[C@H](Nc1cc(Cl)c2ncc(C#N)c(Nc3ccc(F)c(Cl)c3)c2c1)c1cn(C2CCN(C(C)(C)C)CC2)nn1 [Example 318]			EC50 (TNFα; [1]): 271 nM; IC50 (Human Cot; [2]): 8 nM
Cc1nc(F)ccc1[C@H](Nc1cc(C#N)c2ncc(C#N)c(NCC(C)(C)C)c2c1)c1cn(C2CC2)nn1 [Example 454, (S)-6-(((1-cyclopropyl-1H-1,2,3-triazol-4-yl)(6-fluoro-2-methylpyridin-3-yl)methyl)amino)-4-(neopentylamino)-quinoline-3,8-dicarbonitrile]	32	2	
[2H]C(Nc1cc(Cl)c2ncc(C#N)c(NCC(C)(C)C)c2c1)(c1cn(C2CC2)nn1)c1scnc1C (stereo not shown) [Example 102, 8-chloro-6-(((1-cyclopropyl-1H-1,2,3-triazol-4-yl)(4-methylthiazol-5-yl)methyl-d)amino)-4-(neopentyl-amino)quinoline-3-carbonitrile]	461	3	
CC(C)(C)CNc1c(C#N)cnc2c(Cl)cc(N[C@H](c3cn(C45CC(C4)C5)nn3)c3cccc4c(=O)[nH]ccc34)cc12 [Example 787, (S)-6-(((1-(bicyclo[1.1.1]pentan-1-yl)-1H-1,2,3-triazol-4-yl)(1-oxo-1,2-dihydroisoquinolin-5-yl)methyl)amino)-8-chloro-4-(neopentylamino)quinoline-3-carbonitrile]	65	2	
CC(C)(C)CNc1c(C#N)cnc2c(Cl)cc(N[C@H](c3cn(C4(C(F)F)CC4)nn3)c3cccc4cnccc34)cc12 [Example 536, (S)-8-chloro-6-(((1-(1-(difluoromethyl)-cyclopropyl)-1H-1,2,3-triazol-4-yl)(isoquinolin-5-yl)methyl)amino)-4-(neopentylamino)quinoline-3-carbonitrile]	51	3	
CC(C)(C)N1CCC(n2cc([C@@H](Nc3cc(Cl)c4ncc(C#N)c(Nc5ccc(F)c(Cl)c5)c4c3)c3csc(N4CCOCC4)n3)nn2)CC1 [Example 300]			EC50 (TNFα; [1]): 165 nM; IC50 (Human Cot; [2]): 7 nM
